Source: patent US11976057B2, “MrgX2 antagonists” (GlaxoSmithKline Intellectual Property Development Limited, priority 2020, dated 2024)
pIC50: −log10 of the molar value.

Biological target: T1, human MRGPRX2 (Homo sapiens, UniProt Q96LB1)
T1 sequence (Q96LB1 1-330): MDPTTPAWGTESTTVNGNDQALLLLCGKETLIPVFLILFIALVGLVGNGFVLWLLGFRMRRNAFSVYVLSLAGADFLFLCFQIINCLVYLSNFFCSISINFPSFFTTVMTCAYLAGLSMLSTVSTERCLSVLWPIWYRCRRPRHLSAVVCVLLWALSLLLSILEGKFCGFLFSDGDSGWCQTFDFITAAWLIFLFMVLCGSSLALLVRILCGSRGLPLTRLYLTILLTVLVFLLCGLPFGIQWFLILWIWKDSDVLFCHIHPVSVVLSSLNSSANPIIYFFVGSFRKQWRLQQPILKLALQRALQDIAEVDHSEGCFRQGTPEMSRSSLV
Assay: Ca2+ mobilization assay (FLIPR TETRA): inhibition of Cortistatin-14 mediated MRGPRX2 activation

Compound: C[C@@H](C(=O)Nc1ccc(Oc2ccc(F)cc2)cn1)N1CCC(F)(F)[C@@H](c2c[nH]c(=O)c(C#N)c2)C1 [Example 251, (S)-2-((S)-3-(5-cyano-6-oxo-1,6-dihydropyridin-3-yl)-4,4-difluoropiperidin-1-yl)-N-(5-(4-fluorophenoxy)pyridin-2-yl)propanamide]
- pIC50: ≥ 8.00

Compound: C[C@@H](C(=O)Nc1ccc(Cl)cn1)N1CCC[C@@H](c2ccc(=O)n(Cc3ccccc3)c2)C1 (single isomer, unassigned) [Example 168]
- pIC50: 5.50 to 7.00

Compound: C[C@@H](C(=O)Nc1ccc(Oc2ccc(F)cc2F)cn1)N1CCC(F)(F)[C@@H](c2c[nH]c(=O)c([C@@H](N)C(F)(F)F)c2)C1 (single isomer, unassigned) [Example 236]
- pIC50: ≥ 8.00

Compound: C[C@@H](C(=O)Nc1ccc(F)cn1)N1CCC(F)(F)C(c2ccc(=O)n(CCS(C)(=O)=O)c2)C1 (stereo partly drawn) [Example 190, (2S)-2-(4,4-difluoro-3-(1-(2-(methylsulfonyl)ethyl)-6-oxo-1,6-dihydropyridin-3-yl)piperidin-1-yl)-N-(5-fluoropyridin-2-yl)propanamide]
- pIC50: 5.50 to 7.00

Compound: C[C@@H](C(=O)Nc1ccc(F)cn1)N1CCC(F)(F)C(c2cc(N)c(=O)n(CC(F)(F)F)c2)C1 (stereo partly drawn) [Example 187, (2S)-2-(3-(5-amino-6-oxo-1-(2,2,2-trifluoroethyl)-1,6-dihydropyridin-3-yl)-4,4-difluoropiperidin-1-yl)-N-(5-fluoropyridin-2-yl)propanamide]
- pIC50: 4.50 to 5.50

Compound: C[C@@H](C(=O)Nc1ccc(Oc2ccc(F)cc2)cn1)N1CCC(F)(F)[C@@H](c2c[nH]c(=O)c(CO)c2)C1 [Example 156]
- pIC50: ≥ 8.00

Compound: C[C@@H](C(=O)Nc1ccc(Oc2ccc(F)cc2)cn1)N1CCC(F)(F)C(c2c[nH]c(=O)c(C(O)C(F)(F)F)c2)C1 (stereo partly drawn) [Example 211, (2S)-2-(4,4-difluoro-3-(6-oxo-5-(2,2,2-trifluoro-1-hydroxyethyl)-1,6-dihydropyridin-3-yl)piperidin-10-yl)-N-(5-(4-fluorophenoxy)pyridin-2-yl)propanamide]
- pIC50: ≥ 8.00

Compound: C[C@@H](C(=O)Nc1ccc(Oc2ccccn2)cn1)N1CCC(F)(F)[C@@H](c2ccc(=O)[nH]c2)C1 [Example 61, (S)-2-((S)-4,4-difluoro-3-(6-oxo-1,6-dihydropyridin-3-yl)piperidin-1-yl)-N-(5-(pyridin-2-yloxy)pyridin-2-yl)propanamide]
- pIC50: 7.00 to 8.00

Compound: C[C@@H](C(=O)Nc1ccc(Oc2ccc(F)cc2)cn1)N1CCC(F)(F)[C@@H](c2c[nH]c(=O)c([C@@H](N)C(F)(F)F)c2)C1 (single isomer, unassigned) [Example 234]
- pIC50: ≥ 8.00

Compound: CC(C(=O)Nc1ccc(-c2ccn(C)n2)cn1)N1CCC(F)(F)[C@@H](c2ccc(=O)[nH]c2)C1 (stereo partly drawn) [Example 55, 2-((S)-4,4-difluoro-3-(6-oxo-1,6-dihydropyridin-3-yl)piperidin-1-yl)-N-(5-(1-methyl-1H-pyrazol-3-yl)pyridin-2-yl)propanamide]
- pIC50: 4.50 to 5.50

Compound: Cc1cccc(-c2ccc(NC(=O)[C@H](C)N3CCC(F)(F)[C@@H](c4ccc(=O)[nH]c4)C3)nc2)c1 [Example 16, (S)-2-((S)-4,4-difluoro-3-(6-oxo-1,6-dihydropyridin-3-yl)piperidin-1-yl)-N-(5-(m-tolyl)pyridin-2-yl)propanamide]
- pIC50: 7.00 to 8.00

Compound: C[C@@H](C(=O)Nc1ccc(F)cn1)N1CCC(F)(F)[C@@H](c2c[nH]c(=O)c(CO)c2)C1 [Example 153, (S)-2-((S)-4,4-difluoro-3-(5-(hydroxymethyl)-6-oxo-1,6-dihydropyridin-3-yl)piperidin-1-yl)-N-(5-fluoropyridin-2-yl)propanamide]
- pIC50: 5.50 to 7.00

Compound: C[C@@H](C(=O)Nc1ccc(Oc2ccc(F)cc2F)cn1)N1CCC(F)(F)[C@@H](c2ccc(=O)[nH]c2)C1 [Example 4, (S)-2-((S)-4,4-difluoro-3-(6-oxo-1,6-dihydropyridin-3-yl)piperidin-1-yl)-N-(5-(2,4-difluorophenoxy)pyridin-2-yl)propanamide]
- pIC50: ≥ 8.00

Compound: CC(C(=O)Nc1ccc(Oc2ncc(F)cc2C#N)cn1)N1CCC(F)(F)[C@@H](c2ccc(=O)[nH]c2)C1 (stereo partly drawn) [Example 92, N-(5-((3-cyano-5-fluoropyridin-2-yl)oxy)pyridin-2-yl)-2-((S)-4,4-difluoro-3-(6-oxo-1,6-dihydropyridin-3-yl)piperidin-1-yl)propanamide]
- pIC50: 7.00 to 8.00

Compound: C[C@@H](C(=O)Nc1ccc(OCC2CC2)nn1)N1CCC(F)(F)[C@@H](c2cc[n+]([O-])cc2)C1 (single isomer, unassigned) [Example 109]
- pIC50: 5.50 to 7.00

Compound: C[C@@H](C(=O)Nc1cnc(Oc2ccc(F)cc2F)cn1)N1CCC[C@@H](c2cc[n+]([O-])cc2)C1 [Example 181, 4-((S)-1-((S)-1-((5-(2,4-difluorophenoxy)pyrazin-2-yl)amino)-1-oxopropan-2-yl)piperidin-3-yl)pyridine 1-oxide]
- pIC50: 7.00 to 8.00

Compound: CC(C)c1ccc(NC(=O)C(C)N2CCC(F)(F)[C@@H](c3ccc(=O)[nH]c3)C2)nc1 (stereo partly drawn) [Example 82, 2-((S)-4,4-difluoro-3-(6-oxo-1,6-dihydropyridin-3-yl)piperidin-1-yl)-N-(5-isopropylpyridin-2-yl)propanamide]
- pIC50: 5.50 to 7.00

Compound: C[C@@H](C(=O)Nc1ccc(OC2CCCC2)nn1)N1CCC(F)(F)[C@@H](c2ccc(=O)[nH]c2)C1 [Example 101, (S)-N-(6-(cyclopentyloxy)pyridazin-3-yl)-2-((S)-4,4-difluoro-3-(6-oxo-1,6-dihydropyridin-3-yl)piperidin-1-yl)propanamide]
- pIC50: 7.00 to 8.00

Compound: CC(=O)NCc1cc(C2CN(C(C)C(=O)Nc3ccc(F)cn3)CCC2(F)F)cc[n+]1[O-] (stereo not drawn) [Example 263]
- pIC50: 5.50 to 7.00

Compound: C[C@@H](C(=O)Nc1ccc(Oc2ncccc2F)cn1)N1CCC(F)(F)[C@@H](c2ccc(=O)[nH]c2)C1 [Example 65, (S)-2-((S)-4,4-difluoro-3-(6-oxo-1,6-dihydropyridin-3-yl)piperidin-1-yl)-N-(5-((3-fluoropyridin-2-yl)oxy)pyridin-2-yl)propanamide]
- pIC50: 7.00 to 8.00

Compound: CC(C(=O)Nc1ccc(Oc2ccccc2C#N)nn1)N1CCC(F)(F)[C@@H](c2ccc(=O)[nH]c2)C1 (stereo partly drawn) [Example 62, N-(6-(2-cyanophenoxy)pyridazin-3-yl)-2-((S)-4,4-difluoro-3-(6-oxo-1,6-dihydropyridin-3-yl)piperidin-1-yl)propanamide]
- pIC50: 4.50 to 5.50

Compound: CC(C(=O)Nc1ccc(OCC(F)F)cn1)N1CCC(F)(F)[C@@H](c2ccc(=O)[nH]c2)C1 (stereo partly drawn) [Example 49, 2-((S)-4,4-difluoro-3-(6-oxo-1,6-dihydropyridin-3-yl)piperidin-1-yl)-N-(5-(2,2-difluoroethoxy)pyridin-2-yl)propanamide]
- pIC50: 5.50 to 7.00

Compound: C[C@@H](C(=O)Nc1ccc(Oc2cc(F)c(F)cc2F)cn1)N1CCC(F)(F)[C@@H](c2cc[n+]([O-])cc2)C1 [Example 124, 4-((S)-4,4-difluoro-1-((S)-1-oxo-1-((5-(2,4,5-trifluorophenoxy)pyridin-2-yl)amino)propan-2-yl)piperidin-3-yl)pyridine 1-oxide]
- pIC50: ≥ 8.00

Compound: C[C@@H](C(=O)Nc1ccc(Oc2ccccc2)cn1)N1CCC(F)(F)[C@@H](c2ccc(=O)[nH]c2)C1 [Example 6, (S)-2-((S)-4,4-difluoro-3-(6-oxo-1,6-dihydropyridin-3-yl)piperidin-1-yl)-N-(5-phenoxypyridin-2-yl)propanamide]
- pIC50: ≥ 8.00
